# From patent US20070259014A1, “Compositions for and Methods for Treating Hiv” (VGX PHARMACEUTICALS, INC., priority 2003, published 2007)
# Read-outs that look alike come from different tables or passages of the source.
# Assays:
# [1] = test system: laboratory adapted and clinical isolate viruses (HIV); test: Inhibition of viral replication, several laboratory adapted and clinical isolate viruses; assay type: cell-based; conditions: mifepristone 40-1000 nM (17-430 ng/ml)
# [2] = test system: HIV-1 BaL; test: Anti-viral effect in vitro (Table 1), HIV-1 BaL; assay type: cell-based; conditions: Lab isolate, R5 (NSI)
# [3] = test system: HIV-1 89.6; test: Anti-viral effect in vitro (Table 1), HIV-1 89.6; assay type: cell-based; conditions: HIV-1 89.6, Lab isolate, R5X4
# [4] = test system: HIV-1 Ada; test: Anti-viral effect in vitro (Table 1), HIV-1 Ada; assay type: cell-based; conditions: Lab isolate, R5 (NSI)
# [5] = test system: HIV-1 NL43; test: Anti-viral effect in vitro (Table 1), HIV-1 NL43; assay type: cell-based; conditions: HIV-1 NL43, Lab isolate
# [6] = test system: 91US054; test: Anti-viral effect in vitro (Table 1), 91US054; assay type: cell-based, HIV; conditions: 91US054, Clinical isolate, R5 (NSI)
# [7] = test system: 91US056; test: Anti-viral effect in vitro (Table 1), 91US056; assay type: cell-based, HIV; conditions: 91US056, Clinical isolate, R5 (NSI)
# [8] = test system: 92US657; test: Anti-viral effect in vitro (Table 1), 92US657; assay type: cell-based, HIV; conditions: 92US657, Clinical isolate, R5 (NSI)
# [9] = test system: 92US660; test: Anti-viral effect in vitro (Table 1), 92US660; assay type: cell-based, HIV; conditions: 92US660, Clinical isolate, R5 (NSI)
# [10] = test system: 92US714; test: Anti-viral effect in vitro (Table 1), 92US714; assay type: cell-based, HIV; conditions: 92US714, Clinical isolate, R5 (NSI)
# [11] = test system: 92US723; test: Anti-viral effect in vitro (Table 1), 92US723; assay type: cell-based, HIV; conditions: 92US723, Clinical isolate, R5X4
# [12] = test system: 92US727; test: Anti-viral effect in vitro (Table 1), 92US727; assay type: cell-based, HIV; conditions: 92US727, Clinical isolate, R5 (NSI)
# [13] = test system: U1; test: Anti-viral effect in vitro (Table 1), U1 infected cell; assay type: cell-based, HIV
# [14] = test system: J1.1; test: Anti-viral effect in vitro (Table 1), J1.1 infected cell; assay type: cell-based, HIV
# [15] = test system: LL58; test: Anti-viral effect in vitro (Table 1), LL58 infected cell; assay type: cell-based, HIV
# [16] = test system: ACH-2; test: Anti-viral effect in vitro (Table 1), ACH-2 infected cell; assay type: cell-based, HIV
# [17] = test system: OM-10.1; test: Anti-viral effect in vitro (Table 1), OM-10.1 infected cell; assay type: cell-based, HIV
# [18] = test system: HIV+ Patient 1 infected PBMCs; test: Anti-viral effect in vitro (Table 1), HIV+ Patient 1 infected PBMCs; assay type: cell-based
# [19] = test system: HIV+ Patient 2 infected PBMCs; test: Anti-viral effect in vitro (Table 1), HIV+ Patient 2 infected PBMCs; assay type: cell-based
# [20] = test system: HIV+ Patient 3 infected PBMCs; test: Anti-viral effect in vitro (Table 1), HIV+ Patient 3 infected PBMCs; assay type: cell-based
# [21] = test system: HIV+ Patient 4 infected PBMCs; test: Anti-viral effect in vitro (Table 1), HIV+ Patient 4 infected PBMCs; assay type: cell-based
# [22] = test system: wild type HIV-1 NL43 virus
# [23] = test system: alpha 1-acid glycoprotein (AAG); conditions: in-vitro studies; cited from earlier work
# [24] = Sarkar, 2002; cited from earlier work
# [25] = molecular target: T1, human glucocorticoid receptor (Homo sapiens, UniProt P04150); conditions: cited from earlier work
# T1 sequence (P04150 1-777): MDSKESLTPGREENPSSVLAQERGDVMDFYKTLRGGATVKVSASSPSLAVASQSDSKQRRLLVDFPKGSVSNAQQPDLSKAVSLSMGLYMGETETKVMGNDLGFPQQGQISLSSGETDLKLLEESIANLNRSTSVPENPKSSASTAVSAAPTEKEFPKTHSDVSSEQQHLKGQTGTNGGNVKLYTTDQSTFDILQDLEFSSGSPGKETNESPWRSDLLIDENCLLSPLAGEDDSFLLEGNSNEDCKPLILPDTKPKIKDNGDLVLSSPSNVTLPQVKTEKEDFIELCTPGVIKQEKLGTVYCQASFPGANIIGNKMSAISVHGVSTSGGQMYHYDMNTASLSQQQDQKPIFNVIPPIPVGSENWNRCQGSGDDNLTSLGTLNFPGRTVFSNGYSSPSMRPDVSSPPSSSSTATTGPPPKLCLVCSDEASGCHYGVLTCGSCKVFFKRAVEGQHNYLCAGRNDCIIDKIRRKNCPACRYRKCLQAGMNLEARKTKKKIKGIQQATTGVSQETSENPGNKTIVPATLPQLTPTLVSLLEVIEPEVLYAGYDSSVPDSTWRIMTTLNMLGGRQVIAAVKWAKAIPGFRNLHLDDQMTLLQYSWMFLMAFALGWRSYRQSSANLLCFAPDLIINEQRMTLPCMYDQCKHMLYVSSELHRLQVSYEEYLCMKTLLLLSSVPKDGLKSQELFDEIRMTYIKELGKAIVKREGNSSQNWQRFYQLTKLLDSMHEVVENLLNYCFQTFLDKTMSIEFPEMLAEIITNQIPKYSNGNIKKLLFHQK
# [26] = molecular target: Progesterone (Homo sapiens, UniProt P06401); conditions: comparative activity, Table 2; cited from earlier work
# [27] = molecular target: T1, human glucocorticoid receptor; test: Relative binding affinity to the human glucocorticoid receptor / anti-glucocorticoid activity; conditions: comparative ratio of anti-glucocorticoid to anti-progesterone activity
# Progesterone, sequence (P06401 whole entry): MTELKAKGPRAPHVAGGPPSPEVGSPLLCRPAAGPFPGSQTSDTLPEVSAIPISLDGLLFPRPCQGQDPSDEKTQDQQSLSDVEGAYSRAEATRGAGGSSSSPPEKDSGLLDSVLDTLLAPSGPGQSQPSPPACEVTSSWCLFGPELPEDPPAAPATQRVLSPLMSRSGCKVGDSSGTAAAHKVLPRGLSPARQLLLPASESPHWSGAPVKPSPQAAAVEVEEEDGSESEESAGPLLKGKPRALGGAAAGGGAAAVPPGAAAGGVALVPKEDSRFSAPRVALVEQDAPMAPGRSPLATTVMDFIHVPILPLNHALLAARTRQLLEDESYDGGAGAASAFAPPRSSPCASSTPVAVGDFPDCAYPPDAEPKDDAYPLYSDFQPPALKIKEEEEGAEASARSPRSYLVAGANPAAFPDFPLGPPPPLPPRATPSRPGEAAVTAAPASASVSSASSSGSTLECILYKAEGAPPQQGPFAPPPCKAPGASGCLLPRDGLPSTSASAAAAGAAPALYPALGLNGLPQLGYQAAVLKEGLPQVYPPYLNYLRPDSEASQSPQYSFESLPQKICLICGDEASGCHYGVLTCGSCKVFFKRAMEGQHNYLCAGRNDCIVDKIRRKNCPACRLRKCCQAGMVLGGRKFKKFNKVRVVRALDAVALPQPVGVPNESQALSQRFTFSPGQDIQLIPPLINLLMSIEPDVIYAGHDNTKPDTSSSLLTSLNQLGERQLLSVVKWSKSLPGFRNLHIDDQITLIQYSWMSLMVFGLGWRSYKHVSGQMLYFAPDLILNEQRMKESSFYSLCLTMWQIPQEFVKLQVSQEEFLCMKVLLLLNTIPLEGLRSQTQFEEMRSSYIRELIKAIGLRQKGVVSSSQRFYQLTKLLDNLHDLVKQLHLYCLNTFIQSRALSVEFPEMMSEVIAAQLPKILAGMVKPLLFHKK
compound,measurement,setting,value
"11β-(4dimethylaminophenyl)-17β-hydroxy-17-α-(propyl-lynyl)-4,9-dien-3-one [Mifepristone]",inhibition of viral replication,[1],> 90%
same,Maximum % Reduction in Viral Replication By Mifepristone in PBMCs,[2],>90%
same,Maximum % Reduction in Viral Replication By Mifepristone in PBMCs,[3],>90%
same,Maximum % Reduction in Viral Replication By Mifepristone in PBMCs,[4],>90%
same,Maximum % Reduction in Viral Replication By Mifepristone in PBMCs,[5],>90%
same,Maximum % Reduction in Viral Replication By Mifepristone in PBMCs,[6],>95%
same,Maximum % Reduction in Viral Replication By Mifepristone in PBMCs,[7],>95%
same,Maximum % Reduction in Viral Replication By Mifepristone in PBMCs,[8],>80%
same,Maximum % Reduction in Viral Replication By Mifepristone in PBMCs,[9],>90%
same,Maximum % Reduction in Viral Replication By Mifepristone in PBMCs,[10],>90%
same,Maximum % Reduction in Viral Replication By Mifepristone in PBMCs,[11],>90%
same,Maximum % Reduction in Viral Replication By Mifepristone in PBMCs,[12],>95%
same,Maximum % Reduction in Viral Replication By Mifepristone in PBMCs,[13],>95%
same,Maximum % Reduction in Viral Replication By Mifepristone in PBMCs,[14],>95%
same,Maximum % Reduction in Viral Replication By Mifepristone in PBMCs,[15],>90%
same,Maximum % Reduction in Viral Replication By Mifepristone in PBMCs,[16],>95%
same,Maximum % Reduction in Viral Replication By Mifepristone in PBMCs,[17],>95%
same,Maximum % Reduction in Viral Replication By Mifepristone in PBMCs,[18],>95%
same,Maximum % Reduction in Viral Replication By Mifepristone in PBMCs,[19],>95%
same,Maximum % Reduction in Viral Replication By Mifepristone in PBMCs,[20],>90%
same,Maximum % Reduction in Viral Replication By Mifepristone in PBMCs,[21],>95%
same,mifepristone concentrations that consistently resulted in inhibition of HIV replication,[22]; FIG. 2,40 to 1000 nM
same,mifepristone concentrations that consistently resulted in inhibition of HIV replication,"[22]; FIG. 2, nM converted to ng/ml",17 to 430 ng/mL
same,Inhibition of viral replication by mifepristone,"[22]; U937 cells, different concentrations of mifepristone",dose-dependent
same,IC50,"[22]; read-out: IC50 of mifepristone, inhibition of HIV replication in vitro, FIG. 2, U937 cells infected with wild type HIV-1 NL43",8 nM
same,Mifepristone concentrations that saturate AAG,[23],exceeding 2.5 microM
CC#C[C@]1(C)CCC2C3CCC4=CC(=O)CCC4=C3[C@@H](c3ccc(NC)cc3)C[C@@]21C (some centres unmarked),Serum levels of the metabolite compared with Mifepristone,[24],always exceeded those of Mifepristone
same,relative binding affinities to the human glucocorticoid receptor,[25],61%
same,Anti-Glucocorticoid,"[25]; comparative activity, Table 2",61%
same,Anti-Progesterone,[26],21%
same,A-G/A-P,[27],290%
C[C@]12CCC(=O)C=C1CC[C@@H]1[C@@H]2[C@@H](O)C[C@@]2(C)[C@H]1CC[C@]2(O)C(=O)CO [cortisol],relative binding affinities to the human glucocorticoid receptor,[25],23%
